Experimental data: the supplement of paper PMC6045584
± gives the standard deviation of the averaged measurements.

What was measured:
[1] = compound: CCN(CC)CCNC(=O)c1c(C)[nH]c(/C=C2\C(=O)Nc3ccc(F)cc32)c1C [SUNITINIB]; assay: surviving fraction relative to DMSO-only wells; higher = less growth inhibition; details: exposure time: 5 days
Summary of the method: (§1)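 For each tumour cell line, log-phase cells were put into 384-well plates at 250–500 cells per well, then after 24 hours exposed continuously for five days to inhibitors at 0.5, 1, 5, 10, 50, 100, 500 and 1000 nM. Viability was assessed by CellTiter-Glo luminescence, with surviving fraction expressed relative to the median of DMSO-only wells. Lines were screened three times and retained only if replicate Pearson r exceeded 0.7 and median Z' exceeded 0.3.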

[2] = compound: NC1(c2ccc(-c3nc4ccn5c(=O)[nH]nc5c4cc3-c3ccccc3)cc2)CCC1 [MK2206]; assay: as above; details: exposure time: 5 days
Summary of the method: as §1

Test System | surviving fraction ([1]; 0.5 nM) | surviving fraction ([1]; 1 nM) | surviving fraction ([1]; 5 nM) | surviving fraction ([1]; 10 nM) | surviving fraction ([1]; 100 nM) | surviving fraction ([1]; 500 nM) | surviving fraction ([1]; 1000 nM) | surviving fraction ([2]; 0.5 nM) | surviving fraction ([2]; 1 nM) | surviving fraction ([2]; 5 nM) | surviving fraction ([2]; 10 nM) | surviving fraction ([2]; 50 nM) | surviving fraction ([2]; 100 nM) | surviving fraction ([2]; 500 nM) | surviving fraction ([2]; 1000 nM) | surviving fraction ([1]; 50 nM)
SCC36 HEADNECK | 0.754 ± 0.059 | 0.783 ± 0.11 | 0.8 ± 0.02 | 0.714 ± 0.078 | 0.872 ± 0.074 | 0.441 ± 0.047 | 0.222 ± 0.021 | 1.07 ± 0.037 | 1.11 ± 0.085 | 1.1 ± 0.084 | 1.18 ± 0.053 | 0.892 ± 0.025 | 0.936 ± 0.034 | 0.504 ± 0.044 | 0.378 ± 0.032 | –
SCC47 HEADNECK | 0.886 ± 0.019 | 0.9 ± 0.059 | – | – | – | 0.726 ± 0.022 | 0.502 ± 0.041 | 1.03 ± 0.051 | 1.06 ± 0.047 | 1.14 ± 0.065 | 1.16 ± 0.046 | 1.04 ± 0.046 | 1.07 ± 0.052 | 0.935 ± 0.091 | 0.828 ± 0.045 | 1.02 ± 0.016
SCC90 HEADNECK | – | 0.814 ± 0.086 | – | 0.887 ± 0.064 | 1.25 ± 0.17 | 0.819 ± 0.06 | 0.522 ± 0.052 | 0.954 ± 0.027 | 1.01 ± 0.048 | 0.973 ± 0.073 | 1.12 ± 0.093 | 0.887 ± 0.011 | 0.935 ± 0.082 | 0.704 ± 0.071 | 0.586 ± 0.047 | –
SG27 HEADNECK | – | 0.949 ± 0.026 | 0.922 ± 0.072 | 0.744 ± 0.046 | 1.25 ± 0.12 | 1.72 ± 0.17 | 0.81 ± 0.064 | 1.15 ± 0.065 | 1.17 ± 0.066 | 1.07 ± 0.056 | 1.05 ± 0.089 | 0.843 ± 0.18 | 0.949 ± 0.12 | 0.948 ± 0.043 | 0.932 ± 0.042 | 1.22 ± 0.077
SG28 HEADNECK | 0.913 ± 0.11 | 0.789 ± 0.051 | 0.807 ± 0.086 | 0.313 ± 0.042 | 0.725 ± 0.044 | 0.4727 ± 0.0046 | 0.124 ± 0.017 | 1 ± 0.1 | 1.16 ± 0.013 | 1.02 ± 0.14 | 1.05 ± 0.12 | 0.864 ± 0.061 | 0.852 ± 0.1 | 0.634 ± 0.0078 | 0.719 ± 0.059 | 0.893 ± 0.14
